Consider 8 compounds from patent publication USRE49340E1, “Use of known compounds as D-amino acid oxidase inhibitors” (National Taiwan University, priority 2014, dated 2022).

Where “and” joins values, the source holds several entries; their conditions need not be identical. Equal entries are not always repeated. Entries after “also recorded” stand apart in the source; their conditions may differ. Structures can show the parent of a compound that is named as a salt. Where two headings read alike, the source gives them in different places.

For orientation: IC50 means the point on the concentration scale where inhibition reaches its midpoint. A higher IC50 goes with lower potency.

Experiment [1] deals with C57/B16 mice with MK-801 injection. Kind of experiment: Hot plate test in MK-801 mouse model of schizophrenia. The following applies: mice given MK-801 0.2 mg/kg i.p.; listed as RS-D7. In kind it is in vivo. The text has this: (§1) Taking advantage of wild-type (WT, healthy) mouse and pharmacologic animal models of schizophrenia, such as MK-801 and methamphetamine mouse model of schizophrenia, as the well-established animal models of schizophrenia, we investigate the therapeutic potential of RS-D7, a DAO inhibitor, on the alleviation of schizophrenia-related negative and cognitive deficits. A serial of behavioral tasks has been selected and conducted for mimicking the cognitive (e.g., prepulse inhibition) and negative symptoms (e.g., sucrose preference test and hot plate test) of schizophrenia in healthy control mice or pharmacological mouse model of schizophrenia (Lai, W. S et al., Current Pharmaceutical Design, 2014, 20(32), 5139-50). The pharmacological animal model of schizophrenia is due in part to similarities in clinical presentation and response to treatment. These behavioral tasks have been evaluated with varying degrees of test validities for assessing schizophrenia-relevant behavioral deficits in mice. Different batches of male adult C57/B16 mice were used and the details of different behavioral tasks were described elsewhere.
(§2) MK-801 is a non-competitive NMDA receptor antagonist. An injection and chronic injections of MK-801 provide a potential animal model to mimic both the negative and cognitive symptoms of schizophrenia. […]
A general note: Thermal pain tests record how soon the animal reacts.

Experiment [2] deals with WT mice. The experiment is described as follows: Prepulse inhibition (PPI) in WT mouse model. The following applies: 20 mg/kg i.p., 78 dB prepulse, vs saline controls, listed as RS-D7. In kind it is in vivo.
Description: as §1
To assess schizophrenia-like cognitive function in mice, prepulse inhibition (PPI) was used to evaluate sensorimotor gating functions in mice after RS-D7 injection. […]

Experiment [3] deals with WT mice. The experiment is described as follows: Hot plate test in WT mouse model. The format is in vivo. The following applies: 55° C. hot plate, 40 mg/kg i.p., vs WT controls, listed as RS-D7.
Description: as §1
For schizophrenia-like negative symptoms in mice, hot plate test was used to assess basic pain and nociception function in mice. […]

The subject of experiment [4] is C57/B16 mice with MK-801 injection. The experiment is described as follows: Prepulse inhibition in MK-801 mouse model of schizophrenia. The format is in vivo. The following applies: mice given MK-801 0.2 mg/kg i.p., 40 mg/kg RS-D7.
Description: as §1, §2

The test system is the same in experiment [5]. Kind of experiment: Sucrose preference test in MK-801 mouse model of schizophrenia. In kind it is in vivo. The note with it: mice given MK-801 0.2 mg/kg i.p., 20 mg/kg RS-D7.
Description: as §1, §2

Experiment [6] concerns the target porcine kidney DAAO (Sus scrofa (Pig), UniProt P00371). The experiment is described as follows: DAAO enzymatic assay. The format is biochemical. The procedure:
The DAAO activity was measured by using substrate D-alanine reaction produced hydrogen peroxide (H2O2) to further react with 3-(4-hydroxyphenyl) propionic acid (HPPA). The HPPA were oxidized by H2O2 and peroxidase to become the fluorogenic dimer which was measured to represent the activity of DAAO. The substrate of DAAO was prepared in 50 mM D-alanine (dissolved in 0.2 M Tris-HCl buffer, pH 8.3). […] A 10 ul of D-alanine and drug mixture was incubated with 220 ul of Reaction Master Mix in black 96 well plate at 37° C. for 5 min. The Reaction Master Mix contained 110 ul of 5 U/mL porcine kidney DAAO (Sigma-Aldrich, USA) solution (dissolved with 0.2 M Tris-HCl buffer, pH 8.3), 1.1 mL of 15 U/mL peroxidase solution (dissolved with 0.2 M Tris-HCl buffer, pH 8.3), 1.1 mL of 20 mM HPPA solution (dissolved with 0.2 M Tris-HCl buffer, pH 8.3), and 2.2 ml of 2 M Tris-HCl buffer (pH 8.3) for 110 reaction assays.
The higher is the DAAO enzymatic activity, the higher is the fluorescence intensity. The fluorometric inhibition indicator (Fi) was obtained from the following equation: Fi=(Fs−FDrug)/(FDMSO). Where the fluorescent drug blank (FDrug) were measured in the drug mixture solution (using 0.2 M Tris HCl buffer, pH 8.3, without D-alanine). A DMSO blank (FDMSO) was measured under a 100% DMSO solution. Although, in the assay for D-amino acid oxidase, FAD was generally included in the reaction mixture because this co-factor is easily dissociated from the holoenzyme, the present method was performed without FAD. […] The IC50 value was calculated by GraphPad Prism, version 5 software (GraphPad Software, Inc., La Jolla, Calif.) (GraphPad Prism 5, GraphPad software Inc: California, USA) through nonlinear regression model.

Experiment [7] concerns ICR mice with methamphetamine injection. Kind of experiment: Prepulse inhibition in methamphetamine mouse model of schizophrenia. In kind it is in vivo. The following applies: ICR mice with methamphetamine 3 mg/kg i.p., 20 mg/kg i.p., especially 74 dB prepulse, vs DMSO and CBIO controls; listed as RS-D7. The source says: Methamphetamine is a potent psychostimulant that increases the amount of extracellular dopamine in the brain. Methamphetamine (or amphetamine)-induced psychosis model has been well-established and useful for schizophrenia in laboratory animals.

[8] abbreviates: porcine kidney DAAO, D-alanine substrate, HPPA fluorescence, pH 8.3, 37° C.

Sequence of porcine kidney DAAO (P00371 whole entry): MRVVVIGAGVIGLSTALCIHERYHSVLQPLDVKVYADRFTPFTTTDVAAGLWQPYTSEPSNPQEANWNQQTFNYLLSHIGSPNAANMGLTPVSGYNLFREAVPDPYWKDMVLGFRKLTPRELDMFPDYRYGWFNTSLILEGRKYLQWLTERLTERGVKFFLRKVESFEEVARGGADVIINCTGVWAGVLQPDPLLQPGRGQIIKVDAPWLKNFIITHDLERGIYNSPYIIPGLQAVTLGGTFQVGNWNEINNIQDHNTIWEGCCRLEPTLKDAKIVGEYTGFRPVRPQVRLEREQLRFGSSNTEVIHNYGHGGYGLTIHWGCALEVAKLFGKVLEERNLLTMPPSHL

Take `COc1c(C)cnc(C[S+]([O-])c2nc3cc(O)ccc3[nH]2)c1C` (stereo not shown) [5-O-Desmethyl-Omeprazole]: in experiment [1], the “latency in hot plate test” value is given as “alleviates; also recorded: alleviated the MK-801-induced alteration” and the “reaction numbers in hot plate test” value is “alleviates; also recorded: alleviated the MK-801-induced alteration”. Moreover, the “prepulse inhibition (sensorimotor gating function)” value in experiment [2] was “increases; also recorded: induced a greater PPI”. For the same compound, in experiment [3], the “latency of mouse first reaction (jump) on hot plate” value is “increases nociception function; also recorded: accelerated” and the “numbers of jump on hot plate” value is on record as “increases nociception function; also recorded: increased”. Also, the acoustic prepulse inhibition entry in experiment [4] is reported as “alleviates; also recorded: significantly alleviated MK-801 induced PPI deficit”. Moreover, in experiment [5], the “sucrose uptake in sucrose preference test (anhedonia)” value is “alleviates; also recorded: rescued the MK-801 induced deficit”. In experiment [6] (setting [8]), the IC50 is 1.19 µM and 1 to 10 µM. Further, the “prepulse inhibition (sensorimotor gating function)” value in experiment [7] was “alleviates sensorimotor gating deficit; also recorded: induce a greater PPI”.
Consider `CCN(CC)Cc1cc(Nc2ccnc3cc(Cl)ccc23)ccc1O` [Amodiaquin, reference compound], for which half-maximal inhibition in experiment [6] (setting [8]) (IC50) was put at 97.6 µM.
With `CNCC[C@H](Oc1cccc2ccccc12)c1cccs1` [Duloxetine, reference compound], in experiment [6], half-maximal inhibition (IC50) was put at 5.47 µM.
In experiment [6] (setting [8]), `COc1ccc2nc([S@@+]([O-])Cc3ncc(C)c(OC)c3C)[nH]c2c1` [Esomeprazole, reference compound] displayed an IC50 of 106 µM.
On the same count and under the same terms, the figure for `Clc1ccc2c(c1)N=C(N1CCNCC1)c1ccccc1N2` [N-Desmethylclozapine] is 102 µM; for `COc1ccc(OC[C@@H]2CNCC[C@H]2c2ccc(F)cc2)cc1O` [PM-BRL 36583A, (−)-trans 4-(4-Fluorophenyl)-3-(3-hydroxy-4-methoxyphenoxymethyl) piperidine] it is 3.67 µM; for `COc1cc(OC[C@@H]2CNCC[C@H]2c2ccc(F)cc2)ccc1O` [PM-BRL 36610A, (−)trans 4-(4-fluorophenyl)-3-(4-hydroxy-3-methoxyphenoxymethyl)piperidine-hydrochloride] it is 3.45 µM.
With `O=C([O-])c1ccccc1.[Na+]` [sodium benzoate, reference compound], in experiment [6], the IC50 was around 71.7 µM.
